Measurements reported in paper PMC7897990, “TriTOX: A novel Trichomonas vaginalis assay platform for high-throughput screening of compound libraries” (International Journal for Parasitology: Drugs and Drug …, 2021).
Structures can show the parent of a compound that is named as a salt. Where two headings read alike, the source gives them in different places. Non-standard residues stand in square brackets, D forms with d. Residues, ends and D or L forms follow the SMILES beside them. aIle = CC[C@@H](C)[C@H](N)C(=O)O

Tests used:
[1] = test system: nontumorigenic neonatal foreskin fibroblast (NFF) cell line
[2] = test system: Trichomonas vaginalis G3 trophozoites; test: microbe, parasite or virus in culture; details: 48 h
[3] = test system: Trichomonas vaginalis G3 trophozoites
[4] = read-out: T.vaginalis_%inb_Rep1
[5] = read-out: T.vaginalis_%inb_Rep2
[6] = HTS, parasite screen at 1 µg/mL, replicate 1, raw absorbance
[7] = HTS, parasite screen at 1 µg/mL, replicate 2, raw absorbance

Compound	NFF_Activity ([1]; NFF fibroblast screen at 5 µg/mL, A = active, I = inactive)	inhibition of growth at 1 µg/mL [2, 4]	inhibition of growth at 1 µg/mL [2, 5]	NFF_Activity ([1]; NFF fibroblasts, single concentration 5 µg/mL)	T.vaginalis_Absorbance_Rep1 [3, 6]	T.vaginalis_Absorbance_Rep2 [3, 7]	T.vaginalis_Absorbance_Rep1 [3]	T.vaginalis_Absorbance_Rep2 [3]
COC(=O)C1=C2Nc3ccccc3[C@@]23CCN2C[C@]4(C[C@@H]5C[C@]67CCC[C@H]6CCN6CC[C@@]8(c9cccc(OC)c9N(C4)[C@@]58O)[C@@H]67)[C@@H]4OCC[C@]4(C1)[C@H]23 [Vobtusine]	I (otherwise these were reported as inactive (I))	9.54%	11.4%	–	–	–	–	–
CC(C)(O)[C@H]1O[C@H]2CC[C@@]3(C)[C@@](O)(CC[C@H]4Cc5c([nH]c6ccccc56)[C@@]43C)C2=CC1=O [Paxilline]	–	10.1%	13.3%	I (otherwise these were reported as inactive (I))	–	–	–	–
C=C1CC[C@H]2C(C)(C)CCC[C@]2(C)[C@H]1C[C@@]12C[C@H]3C(=O)N4CCC[C@H]4C(=O)N3[C@@H]1Nc1ccccc12 [Drimentine C]	–	10.4%	13.8%	–	0.907	0.85	–	–
CC(=O)O[C@H]1CC[C@@]2(C)[C@@H](CC[C@@H]3[C@@H]2CC(=O)[C@]2(C)[C@@H]4[C@H](C[C@@H]32)O[C@]2(CC[C@@H](C)CO2)[C@H]4C)C1 [Hecogenin acetate]	–	10.4%	14.1%	–	0.908	0.854	–	–
CC[C@@H](C)[C@@H]1NC(=O)[C@@H](CC(C)C)NC(=O)[C@H](CC(C)C)NC(=O)[C@H](Cc2c[nH]c3ccccc23)NC(=O)CNC(=O)[C@H](CC(N)=O)NC1=O [Desotamide] (cyclo(GWL[dL][aIle]N))	–	15%	4.99%	–	0.987	0.689	–	–
CC[C@H]1OC(=O)[C@H](C)[C@@H](O[C@H]2C[C@@](C)(OC)[C@@H](O)[C@H](C)O2)[C@H](C)[C@@H](O[C@@H]2O[C@H](C)C[C@H](N(C)C)[C@H]2O)[C@](C)(O)C[C@@H](C)[C@@H]2N[C@@H](COCCOC)O[C@H]([C@H]2C)[C@]1(C)O [Dirithromycin]	–	8.51%	2.24%	–	0.867	0.651	–	–
C[C@@H](O)[C@H]1C(=O)N2C(C(=O)O)=C(S[C@@H]3CN[C@H](CNS(N)(=O)=O)C3)[C@H](C)[C@H]12 [Doripenem]	–	15.6%	15.6%	–	0.999	–	–	–
CC(=O)O[C@H]1C[C@@]2(C)[C@@H](CC[C@H]3[C@@]4(C)C=CC(=O)[C@@H](C)[C@@H]4[C@H](OC(C)=O)C(=O)[C@@]32C)/C1=C(\CCC=C(C)C)C(=O)O [Helvolic acid]	–	5.19%	10.6%	–	0.864	0.811	–	–
C[C@H]1[C@H](C)CC[C@]2(C(=O)O)CC[C@]3(C)C(=CC[C@@H]4[C@@]5(C)CC[C@H](O)C(C)(C)[C@@H]5CC[C@]43C)[C@H]12 [Ursolic acid]	–	7.39%	10.4%	–	–	–	–	–
C[C@H]1c2cccc(O)c2C(=O)C2=C(O)[C@]3(O)C(=O)C(C(N)=O)=C(O)[C@@H](N(C)C)[C@@H]3[C@@H](O)[C@@H]21 [Doxycycline]	–	9.15%	1.95%	–	0.879	0.647	–	–
CS(=O)(=O)c1ccc([C@@H](O)[C@@H](CF)NC(=O)C(Cl)Cl)cc1 [Florfenicol]	–	7.7%	9.33%	–	0.852	0.749	–	–
CN(C)c1cc(NC(=O)CNC(C)(C)C)c(O)c2c1C[C@H]1C[C@H]3[C@H](N(C)C)C(O)=C(C(N)=O)C(=O)[C@@]3(O)C(O)=C1C2=O [Tigecycline]	–	10%	5.97%	–	–	–	–	–
COC1=C2C[C@@H](C)C[C@H](OC)[C@H](O)[C@@H](C)/C=C(\C)[C@H](OC(N)=O)[C@@H](OC)/C=C\C=C(/C)C(=O)NC(=CC1=O)C2=O [Geldanamycin]	–	13%	14.1%	–	0.958	0.854	–	–
COc1cccc2c1C(=O)c1c(O)c3c(c(O)c1C2=O)C[C@@](O)(C(=O)CO)C[C@@H]3O[C@H]1C[C@H](N)[C@H](O)[C@H](C)O1 [Doxorubicin]	–	13.5%	3.11%	–	0.959	0.663	–	–
O=C(O)c1cccc(C(=O)O)n1 [Dipicolinic acid]	–	13.9%	2.6%	–	–	–	0.967	0.656
Cc1cc(O)c2c(c1)C(=O)c1cc(O)cc(O)c1C2=O [Emodin]	–	17.8%	12.6%	–	1.052	0.831	–	–
COC(=O)[C@@H]1c2cc3c(c(O)c2[C@@H](O[C@@H]2O[C@@H](C)[C@H](OC)[C@@](C)(OC)[C@H]2OC)C[C@]1(C)O)C(=O)c1c(O)cc2c(c1C3=O)O[C@@H]1O[C@@]2(C)[C@H](O)[C@@H](N(C)C)[C@@H]1O [Nogalamycin]	–	12.8%	13.3%	–	–	–	–	–
Oc1cc(O)cc(O)c1 [Phloroglucinol]	–	13.9%	12.3%	–	–	–	–	–
CC(=O)O[C@H]1C[C@@]2(C)[C@@H](C[C@@H](O)[C@H]3[C@@]4(C)CC[C@@H](O)[C@@H](C)[C@@H]4CC[C@@]32C)/C1=C(\CCC=C(C)C)C(=O)O [Fusidate sodium]	–	4.26%	1.6%	–	0.786	0.66	–	–
C=C[C@]1(C)C[C@@H](OC(=O)CSC(C)(C)CNC(=O)[C@H](N)C(C)C)[C@]2(C)[C@H](C)CC[C@]3(CCC(=O)[C@H]32)[C@@H](C)[C@@H]1O [Valnemulin]	–	8.39%	8.96%	–	–	–	–	–
CC1=C\[C@@H](O)CC(=O)Cc2nc(co2)C(=O)N2CCC=C2C(=O)O[C@H](C(C)C)[C@H](C)/C=C/C(=O)NC\C=C\1 [Ostreogrycin A]	–	13.9%	14.5%	–	–	–	–	–
CN(C)c1ccc(O)c2c1C[C@H]1C[C@H]3[C@H](N(C)C)C(O)=C(C(N)=O)C(=O)[C@@]3(O)C(O)=C1C2=O [Minocycline HCl]	–	4.51%	0.77%	–	–	–	–	–
CN(C)[C@@H]1C(O)=C(C(N)=O)C(=O)[C@@]2(O)C(O)=C3C(=O)c4c(O)cccc4[C@@](C)(O)[C@H]3[C@H](O)[C@@H]12 [Oxytetracycline]	–	13.3%	10.7%	–	–	–	–	–
CO[C@H]1C[C@@H]2CC[C@@H](C)[C@@](O)(O2)C(=O)C(=O)N2CCCC[C@H]2C(=O)O[C@H]([C@H](C)C[C@@H]2CC[C@H](n3cnnn3)[C@H](OC)C2)CC(=O)[C@H](C)/C=C(\C)[C@@H](O)[C@@H](OC)C(=O)[C@H](C)C[C@H](C)/C=C/C=C/C=C/1C [Zotarolimus]	–	10.4%	6.09%	–	–	–	–	–
COC1=CC(=O)C[C@@H](C)[C@]12Oc1c(Cl)c(OC)cc(OC)c1C2=O [Griseofulvin]	–	12.4%	12.1%	–	0.947	0.823	–	–
CCc1c(Cl)c(O)c(Cl)c(O)c1C(=O)O[C@H]1[C@H](O)[C@H](OC)[C@H](OC/C2=C\C=C\C[C@H](O)/C(C)=C/[C@H](CC)[C@@H](O[C@@H]3OC(C)(C)[C@@H](OC(=O)C(C)C)[C@H](O)[C@@H]3O)/C(C)=C/C(C)=C/C[C@@H]([C@@H](C)O)OC2=O)O[C@@H]1C [Fidaxomicin]	–	11.5%	10.1%	–	0.922	0.759	–	–
CC[C@H](C)C(=O)O[C@H]1C[C@H](O)C=C2C=C[C@H](C)[C@H](CC[C@@H](O)C[C@@H](O)CC(=O)O)[C@H]21 [Pravastatin sodium]	–	13%	13.6%	–	–	–	–	–
CC[C@@H]1/C=C(\C)C[C@H](C)C[C@H](OC)[C@H]2O[C@@](O)(C(=O)C(=O)N3CCCC[C@H]3C(=O)O[C@H](/C(C)=C/[C@@H]3CC[C@H](Cl)[C@H](OC)C3)[C@H](C)[C@@H](O)CC1=O)[C@H](C)C[C@@H]2OC [Pimecrolimus]	–	13%	14%	–	–	–	–	–
CC(=O)c1c(O)c(C)c(O)c2c1OC1=CC(=O)C(C(C)=O)C(=O)C12C (centres unmarked) [Usnic acid]	–	8.76%	13.7%	–	–	–	–	–
